Assay results: US9708314B2, “Heterocyclic amide compound” (NISSAN CHEMICAL INDUSTRIES, LTD., priority 2013, dated 2017)

Legend:
Type in all cases: in vivo
[1] = test system: directly sowed Oryza sativa; test: Test Example 3: effect on crop by application to foliage (Wagner pot, water depth 0.1-0.5 cm); conditions: Nineteenth Table, application to foliage
In short: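 Grading uses six bands of herbicidal ratio, from 0 (≤5%, almost no effect) to 5 (≥90%, almost completely withered). Treatment was a stem-and-leaf spray of diluted emulsion at a fixed g/ha on 14-day-old plants; evaluation after three weeks.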

[2] = test system: transplanted Oryza sativa; test: Test Example 1: effect on crop, application before weed generation in submerged conditions; conditions: Seventeenth Table
In short: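 Rating, on a six-step scale from almost no effect (0) to almost completely withered (5), was made three weeks after pre-emergence treatment. Treatment was surface application to flooded pots at g/ha rates, with plants kept at 25° C. to 30° C.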

[3] = test system: Abutilon theophrasti; test: Test Example 4: herbicidal effect by application to foliage (diluvial soil, plastic box); conditions: application to foliage
In short: (§1)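 Emulsion-formulated compound, diluted to a predetermined g/ha dose, applied by small sprayer to leaves and stems of 14-day-old seedlings grown in sterilized diluvial soil. Effect rated on 0–5 herbicidal-ratio scale three weeks on.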

[4] = test system: Avena fatua; test: as above; conditions: application to foliage
In short: as §1

[5] = test system: Chenopodium album; test: as above; conditions: application to foliage
In short: as §1

[6] = test system: Echinochloa crus-galli var. crus-galli; test: as above; conditions: application to foliage
In short: as §1

[7] = test system: Amaranthus retroflexus; test: as above; conditions: application to foliage
In short: as §1

[8] = test system: Apera spica-venti.; test: as above; conditions: application to foliage
In short: as §1

[9] = test system: Lolium multiflorum Lam.; test: as above; conditions: application to foliage
In short: as §1

[10] = application herbicide amount 320 g/ha
[11] = application herbicide amount 260 g/ha

C#CCSc1nnc2c(C(=O)Nc3nnnn3C)ccc(C(F)(F)F)n12 [2-103]
b (effect on crop grade) [1, 10]: 1 (Herbicidal ratio of 5% or more and less than 20%)
a (transplanted Oryza sativa) effect on crop grade [2, 10]: 3 (Herbicidal ratio of 40% or more and less than 70%)
herbicidal effect, M (Abutilon theophrasti) ([3]; 320 g/ha): 4 (Herbicidal ratio of 70% or more and less than 90%)
herbicidal effect, I (Avena fatua) ([4]; 320 g/ha): 1 (Herbicidal ratio of 5% or more and less than 20%)
herbicidal effect, O (Chenopodium album) ([5]; 320 g/ha): 5 (Herbicidal ratio of 90% or more (almost completely withered))
herbicidal effect, H (Echinochloa crus-galli var. crus-galli) ([6]; 320 g/ha): 5 (Herbicidal ratio of 90% or more (almost completely withered))
herbicidal effect, N (Amaranthus retroflexus) ([7]; 320 g/ha): 5 (Herbicidal ratio of 90% or more (almost completely withered))
herbicidal effect, L (Apera spica-venti.) ([8]; 320 g/ha): 2 (Herbicidal ratio of 20% or more and less than 40%)
herbicidal effect, K (Lolium multiflorum Lam.) ([9]; 320 g/ha): 1 (Herbicidal ratio of 5% or more and less than 20%)

CC#Cc1nnc2c(C(=O)Nc3nnnn3C)ccc(C(F)(F)F)n12 [2-106]
b (effect on crop grade) [1, 10]: 0 (Herbicidal ratio of 5% or less (almost no effect))
a (transplanted Oryza sativa) effect on crop grade [2, 10]: 2 (Herbicidal ratio of 20% or more and less than 40%)
herbicidal effect, M (Abutilon theophrasti) ([3]; 320 g/ha): 5 (Herbicidal ratio of 90% or more (almost completely withered))
herbicidal effect, I (Avena fatua) ([4]; 320 g/ha): 1 (Herbicidal ratio of 5% or more and less than 20%)
herbicidal effect, O (Chenopodium album) ([5]; 320 g/ha): 5 (Herbicidal ratio of 90% or more (almost completely withered))
herbicidal effect, H (Echinochloa crus-galli var. crus-galli) ([6]; 320 g/ha): 3 (Herbicidal ratio of 40% or more and less than 70%)
herbicidal effect, N (Amaranthus retroflexus) ([7]; 320 g/ha): 4 (Herbicidal ratio of 70% or more and less than 90%)
herbicidal effect, L (Apera spica-venti.) ([8]; 320 g/ha): 0 (Herbicidal ratio of 5% or less (almost no effect))
herbicidal effect, K (Lolium multiflorum Lam.) ([9]; 320 g/ha): 0 (Herbicidal ratio of 5% or less (almost no effect))

CC(=O)OCc1nnc2c(C(=O)Nc3nnnn3C)ccc(C(F)(F)F)n12 [2-107]
b (effect on crop grade) [1, 10]: 4 (Herbicidal ratio of 70% or more and less than 90%)
a (transplanted Oryza sativa) effect on crop grade [2, 10]: 1 (Herbicidal ratio of 5% or more and less than 20%)
herbicidal effect, M (Abutilon theophrasti) ([3]; 320 g/ha): 5 (Herbicidal ratio of 90% or more (almost completely withered))
herbicidal effect, I (Avena fatua) ([4]; 320 g/ha): 1 (Herbicidal ratio of 5% or more and less than 20%)
herbicidal effect, O (Chenopodium album) ([5]; 320 g/ha): 5 (Herbicidal ratio of 90% or more (almost completely withered))
herbicidal effect, H (Echinochloa crus-galli var. crus-galli) ([6]; 320 g/ha): 5 (Herbicidal ratio of 90% or more (almost completely withered))
herbicidal effect, N (Amaranthus retroflexus) ([7]; 320 g/ha): 5 (Herbicidal ratio of 90% or more (almost completely withered))
herbicidal effect, L (Apera spica-venti.) ([8]; 320 g/ha): 0 (Herbicidal ratio of 5% or less (almost no effect))
herbicidal effect, K (Lolium multiflorum Lam.) ([9]; 320 g/ha): 0 (Herbicidal ratio of 5% or less (almost no effect))

Cn1nnnc1NC(=O)c1ccc(C(F)(F)F)n2c(CO)nnc12 [2-108]
b (effect on crop grade) [1, 10]: 4 (Herbicidal ratio of 70% or more and less than 90%)
a (transplanted Oryza sativa) effect on crop grade [2, 10]: 0 (Herbicidal ratio of 5% or less (almost no effect))
herbicidal effect, M (Abutilon theophrasti) ([3]; 320 g/ha): 5 (Herbicidal ratio of 90% or more (almost completely withered))
herbicidal effect, I (Avena fatua) ([4]; 320 g/ha): 1 (Herbicidal ratio of 5% or more and less than 20%)
herbicidal effect, O (Chenopodium album) ([5]; 320 g/ha): 5 (Herbicidal ratio of 90% or more (almost completely withered))
herbicidal effect, H (Echinochloa crus-galli var. crus-galli) ([6]; 320 g/ha): 5 (Herbicidal ratio of 90% or more (almost completely withered))
herbicidal effect, N (Amaranthus retroflexus) ([7]; 320 g/ha): 5 (Herbicidal ratio of 90% or more (almost completely withered))
herbicidal effect, L (Apera spica-venti.) ([8]; 320 g/ha): 0 (Herbicidal ratio of 5% or less (almost no effect))
herbicidal effect, K (Lolium multiflorum Lam.) ([9]; 320 g/ha): 0 (Herbicidal ratio of 5% or less (almost no effect))

Cn1nnnc1NC(=O)c1ccc(C(F)(F)F)n2c(C=O)nnc12 [2-109]
b (effect on crop grade) [1, 11]: 2 (Herbicidal ratio of 20% or more and less than 40%)
a (transplanted Oryza sativa) effect on crop grade [2, 11]: 0 (Herbicidal ratio of 5% or less (almost no effect))
herbicidal effect, M (Abutilon theophrasti) ([3]; 256 g/ha): 5 (Herbicidal ratio of 90% or more (almost completely withered))
herbicidal effect, I (Avena fatua) ([4]; 256 g/ha): 1 (Herbicidal ratio of 5% or more and less than 20%)
herbicidal effect, O (Chenopodium album) ([5]; 256 g/ha): 5 (Herbicidal ratio of 90% or more (almost completely withered))
herbicidal effect, H (Echinochloa crus-galli var. crus-galli) ([6]; 256 g/ha): 4 (Herbicidal ratio of 70% or more and less than 90%)
herbicidal effect, N (Amaranthus retroflexus) ([7]; 256 g/ha): 5 (Herbicidal ratio of 90% or more (almost completely withered))
herbicidal effect, L (Apera spica-venti.) ([8]; 256 g/ha): 0 (Herbicidal ratio of 5% or less (almost no effect))
herbicidal effect, K (Lolium multiflorum Lam.) ([9]; 256 g/ha): 1 (Herbicidal ratio of 5% or more and less than 20%)

Cn1nnnc1NC(=O)c1ccc(C(F)(F)F)n2c(C3(C)CC3(Cl)Cl)nnc12 (stereo not drawn) [2-110]
b (effect on crop grade) [1, 10]: 3 (Herbicidal ratio of 40% or more and less than 70%)
a (transplanted Oryza sativa) effect on crop grade [2, 10]: 4 (Herbicidal ratio of 70% or more and less than 90%)
herbicidal effect, M (Abutilon theophrasti) ([3]; 320 g/ha): 5 (Herbicidal ratio of 90% or more (almost completely withered))
herbicidal effect, I (Avena fatua) ([4]; 320 g/ha): 3 (Herbicidal ratio of 40% or more and less than 70%)
herbicidal effect, O (Chenopodium album) ([5]; 320 g/ha): 5 (Herbicidal ratio of 90% or more (almost completely withered))
herbicidal effect, H (Echinochloa crus-galli var. crus-galli) ([6]; 320 g/ha): 5 (Herbicidal ratio of 90% or more (almost completely withered))
herbicidal effect, N (Amaranthus retroflexus) ([7]; 320 g/ha): 5 (Herbicidal ratio of 90% or more (almost completely withered))
herbicidal effect, L (Apera spica-venti.) ([8]; 320 g/ha): 3 (Herbicidal ratio of 40% or more and less than 70%)
herbicidal effect, K (Lolium multiflorum Lam.) ([9]; 320 g/ha): 3 (Herbicidal ratio of 40% or more and less than 70%)

Cn1nnnc1NC(=O)c1ccc(C(F)(F)F)n2c(=O)n(C)nc12 [6-002]
b (effect on crop grade) [1, 10]: 0 (Herbicidal ratio of 5% or less (almost no effect))
a (transplanted Oryza sativa) effect on crop grade [2, 10]: 0 (Herbicidal ratio of 5% or less (almost no effect))
herbicidal effect, M (Abutilon theophrasti) ([3]; 320 g/ha): 5 (Herbicidal ratio of 90% or more (almost completely withered))
herbicidal effect, I (Avena fatua) ([4]; 320 g/ha): 1 (Herbicidal ratio of 5% or more and less than 20%)
herbicidal effect, O (Chenopodium album) ([5]; 320 g/ha): 5 (Herbicidal ratio of 90% or more (almost completely withered))
herbicidal effect, H (Echinochloa crus-galli var. crus-galli) ([6]; 320 g/ha): 5 (Herbicidal ratio of 90% or more (almost completely withered))
herbicidal effect, N (Amaranthus retroflexus) ([7]; 320 g/ha): 5 (Herbicidal ratio of 90% or more (almost completely withered))
herbicidal effect, L (Apera spica-venti.) ([8]; 320 g/ha): 0 (Herbicidal ratio of 5% or less (almost no effect))
herbicidal effect, K (Lolium multiflorum Lam.) ([9]; 320 g/ha): 0 (Herbicidal ratio of 5% or less (almost no effect))

CCn1nc2c(C(=O)Nc3nnnn3C)ccc(C(F)(F)F)n2c1=O [6-004]
b (effect on crop grade) [1, 10]: 3 (Herbicidal ratio of 40% or more and less than 70%)
a (transplanted Oryza sativa) effect on crop grade [2, 10]: 0 (Herbicidal ratio of 5% or less (almost no effect))
herbicidal effect, M (Abutilon theophrasti) ([3]; 320 g/ha): 5 (Herbicidal ratio of 90% or more (almost completely withered))
herbicidal effect, I (Avena fatua) ([4]; 320 g/ha): 3 (Herbicidal ratio of 40% or more and less than 70%)
herbicidal effect, O (Chenopodium album) ([5]; 320 g/ha): 5 (Herbicidal ratio of 90% or more (almost completely withered))
herbicidal effect, H (Echinochloa crus-galli var. crus-galli) ([6]; 320 g/ha): 5 (Herbicidal ratio of 90% or more (almost completely withered))
herbicidal effect, N (Amaranthus retroflexus) ([7]; 320 g/ha): 5 (Herbicidal ratio of 90% or more (almost completely withered))
herbicidal effect, L (Apera spica-venti.) ([8]; 320 g/ha): 1 (Herbicidal ratio of 5% or more and less than 20%)
herbicidal effect, K (Lolium multiflorum Lam.) ([9]; 320 g/ha): 2 (Herbicidal ratio of 20% or more and less than 40%)

CC(C)c1nc2c(C(=O)Nc3nnnn3C)ccc(C(F)(F)F)n2n1 [7-002]
b (effect on crop grade) [1, 10]: 0 (Herbicidal ratio of 5% or less (almost no effect))
a (transplanted Oryza sativa) effect on crop grade [2, 10]: 1 (Herbicidal ratio of 5% or more and less than 20%)
herbicidal effect, M (Abutilon theophrasti) ([3]; 320 g/ha): 3 (Herbicidal ratio of 40% or more and less than 70%)
herbicidal effect, I (Avena fatua) ([4]; 320 g/ha): 1 (Herbicidal ratio of 5% or more and less than 20%)
herbicidal effect, O (Chenopodium album) ([5]; 320 g/ha): 5 (Herbicidal ratio of 90% or more (almost completely withered))
herbicidal effect, H (Echinochloa crus-galli var. crus-galli) ([6]; 320 g/ha): 4 (Herbicidal ratio of 70% or more and less than 90%)
herbicidal effect, N (Amaranthus retroflexus) ([7]; 320 g/ha): 4 (Herbicidal ratio of 70% or more and less than 90%)
herbicidal effect, L (Apera spica-venti.) ([8]; 320 g/ha): 0 (Herbicidal ratio of 5% or less (almost no effect))
herbicidal effect, K (Lolium multiflorum Lam.) ([9]; 320 g/ha): 0 (Herbicidal ratio of 5% or less (almost no effect))
